Results: patent publication US20260159474A1, “Aminoindane Compounds and Compositions and Methods of Their Therapeutic Use” (Solvonis Therapeutics Ireland Holdings Limited, priority 2021, published 2026)
Entries after “also recorded” stand apart in the source; their conditions may differ.

Tested on: 5-HT release in rat synaptosomes
Assay: Serotonin release assay in rat cortex synaptosomes
Format: biochemical
Conditions: rat cortex synaptosomes, % of maximal release with 50 μM MDMA, n=2
Experimental: Methods-Evaluation of Monoamine Release: The potency of therapeutic compounds for stimulating DA release was measured by an endpoint release filtration assay in a 96-well format using rat synaptosomes, essentially as described by Sandtner et al. (Mol Pharmacol., 2016; 89(1):165-75.) and Baumann et al. (Neuropsychopharmacol, 2013; 38:552-562.) with some variations. One male rat was euthanized, and striatum/cortex regions were dissected over ice. The striatum portions were weighed and put in a glass tube containing ice-cold 0.32 M sucrose (dilution 1:24 w/v) for homogenization, while the frontal cortex tissue was diluted in ice-cold 0.32 M sucrose, 1:20 w/v. Tissues were homogenized and centrifuged for 10 mins at 1000×g. The two supernatants from striatum and cortex (crude synaptosomes) were retained on ice until use.
Test compounds were then serially diluted 1:4 in neat DMSO as concentration-response curves (CRC) of 11 points. To each well of a 2-mL 96 deep-well plate (Whatman UNIPLATE 96 well) were added: 2 μL of a concentration-response curve (CRC) of test compounds or 2 μL of DMSO (no-release condition) or 2 μL of MDMA 10 mM solution (final 50 μM, for maximal release), followed by 200 μL/well of complete Krebs-phosphate buffer (126 mM NaCl, 2.4 mM KCl, 0.83 mM CaCl2), 0.8 mM MgCl2, 0.5 mM KH2PO4, 0.5 mM Na2SO4, 11.1 mM glucose, 0.05 mM pargyline, 1 mg/mL ascorbic acid, freshly added, pH 7.4), containing 1 μM reserpine to block vesicular uptake of substrate. Desipramine (100 nM) and citalopram (100 nM) were also added to the release assay buffer in order to inhibit NET and SERT uptake, respectively. The final compound dilution, then, was 1:200 in 0.5% DMSO.
The raw data (cpm) from residual radioactivity onto the filter were elaborated for the determination of pEC50/EC50 values. Specifically, the compound effect was expressed as the percent of maximal release obtained with 50 μM MDMA (100% release) in comparison to vehicle (0.5% DMSO, 0% release). Both MDMA and D-amphetamine in CRC were used as internal controls in each release experiment. In each plate, for both 0% and 100% of release, the signal window was monitored and Z′ calculations were determined using the raw data of four replicates. 5-HT release was calculated in an identical fashion, except that 5 nM 3H-serotonin was added to crude cortex synaptosomes preparation diluted 1:13 (v/v) in complete Krebs-phosphate buffer containing 1 μM Reserpine, 100 nM GBR12909 and 100 nM nomifensine to block vesicular, DAT, and NET uptake, respectively. Synaptosomes were then loaded with 3H-5HT for 60 minutes at RT. After dispensing loaded synaptosomes onto a compound plate (200 μL/well), the release reaction proceeded for an additional 15 minutes. Stop by filtration, counting, and data elaboration were performed as described for DA release. Compounds were tested in duplicate (n=2).
For `CNC(C)Cc1ccc2c(c1)OCO2` (stereo not drawn) [MDMA], the “5-HT Release (pEC50)” value was 7.0.
For `COC(=O)c1ccc2c(c1)CC(N)C2` (stereo not drawn) [CMP-405, 2-aminoindane-5-methylcarboxylate], the “5-HT Release (pEC50)” value was 6.1.
With `COc1ccc2c(c1)CC(N)C2` (stereo not drawn) [MEAI, 5-methoxy-2-aminoindane] the “5-HT Release (pEC50)” value was 6.8.
For `COc1cc2c(cc1C)CC(N)C2` (stereo not drawn) [MMAI, 5-methoxy-6-methyl-2-aminoindane], the “5-HT Release (pEC50)” value was 7.4.
For `COC(=O)c1cc2c(cc1OC)CC(N)C2` (stereo not drawn) [CMP-401], the “5-HT Release (pEC50)” value was 5.5.
For `COC(=O)COc1ccc2c(c1)CC(N)C2` (stereo not drawn) [CMP-402], the “5-HT Release (pEC50)” value was 5.0.

Same assay, conditions: ratio of 5-HT and DA release potency, rat synaptosomes
In the case of `CNC(C)Cc1ccc2c(c1)OCO2` (stereo not drawn) [MDMA], the “SERT/DAT Release Ratio” value is reported as 2.6.
With `COC(=O)c1ccc2c(c1)CC(N)C2` (stereo not drawn) [CMP-405, 2-aminoindane-5-methylcarboxylate] the “SERT/DAT Release Ratio” value was 3.2.
For `COc1ccc2c(c1)CC(N)C2` (stereo not drawn) [MEAI, 5-methoxy-2-aminoindane], the “SERT/DAT Release Ratio” value was 28.
In the case of `COc1cc2c(cc1C)CC(N)C2` (stereo not drawn) [MMAI, 5-methoxy-6-methyl-2-aminoindane], the “SERT/DAT Release Ratio” value is reported as 575.
In the case of `COC(=O)c1cc2c(cc1OC)CC(N)C2` (stereo not drawn) [CMP-401], the “SERT/DAT Release Ratio” value is reported as over 35.
In the case of `COC(=O)COc1ccc2c(c1)CC(N)C2` (stereo not drawn) [CMP-402], the “SERT/DAT Release Ratio” value is reported as over 10.

Tested on: not listed separately
Assay: Intrinsic clearance in human liver microsomes
Format: in vitro ADME
Conditions: not given
Experimental: Methods: The general procedure involved incubating test compounds with liver microsomes and subsequently detecting the compounds to determine intrinsic clearance. Clearance was estimated from the rate of depletion k (min-1), the volume of the incubation V (mL), and the amount of microsomal proteins in the incubation M (mg). Intrinsic clearance is defined by the following equation: Clint=k*V/M.
Values for CLint are expressed as μL/min/mg liver microsomes. Verapamil and dextromethorphan were used as positive controls for CYP3A4 and CYP2D6 isoforms, respectively, to confirm metabolic activity. Stock solutions were prepared in DMSO for therapeutic compounds and positive controls verapamil and dextromethorphan (10 mM for all). Working solutions were prepared by diluting stock in MeOH to reach […]. However, this concentration can be varied, e.g., when the test item is not soluble in the selected solvent.
Prior to experimentation, frozen liver microsomes were thawed in a water bath at 37° C. and kept on ice until use. The microsomes were then diluted with 50 mM potassium phosphate buffer pH 7.4 to a protein concentration of 0.56 mg/mL. To prepare test and control items in final incubation conditions, 5 μL of test compound and positive control working solutions were added to 445 μL of microsomes incubation mixture at 0.56 mg/mL and 50 μL of regenerating system.
As it relates to the automated incubation procedure for microsomes incubation, the following procedure was followed. Briefly, 150 μL of quenching solution (ACN containing an appropriate Internal Standard, i.e. Rolipram and Diclofenac for positive and negative ion mode, respectively) was manually dispensed or dispensed by using the Hamilton system in each well of 96 deep well 1 mL plates. Next, 800-1000 μL-aliquots of NADPH regenerating system were pre-warmed at 37° C. for 5 minutes. 5 μL of 50 µM test items and control were added to 445 μL of the 0.56 mg/mL microsomes solution, and the incubation mixture was pre-warmed in a 96 deep well 2 mL plate (incubation plate) at 37° C. for 5 minutes. The incubation reactions were initiated by adding 50 μL of pre-warmed NADPH regenerating system to the incubation mixtures.
50 μL-aliquots were sampled from incubation mixtures at: 0, 3, 10, 15, 30, and 45 minutes. The samples were centrifuged at 3,000 rpm for 10 minutes and further diluted in order to optimize the analytical condition prior to the LC MS/MS or Rapid Fire-MS/MS analysis. Incubations of test items were run in duplicate (n=2) with a single positive control (n=1). For sample analysis, an LC-MS/MS system was used to monitor the test samples/control to internal standard peak area ratios as representative of the test or control item's concentration. Data from test item incubation was processed to give mean values where applicable. Metabolic stability was calculated from the ratio of peak area of the remaining test or control item with internal standard versus time.
Peak areas for test and control items were integrated using Integrator Software from Agilent or Analyst or MultiQuant Software from AB SciexTM and were exported to XLFit or Morphit (The Edge), which were designed to calculate in vitro metabolic stability parameters. The integrated peak areas of the test and control items at the selected time points were divided by the respective peak areas of the IS, and the percent of parent remaining was calculated by normalizing the peak area ratio of parent to IS at 0 min. Observed rate constant (kobs) for parent degradation was calculated by determining the slope of the line of the graph of the natural log of percentage parent remaining versus time of incubation. This was scaled for the protein in the incubation relative to that in the liver.
In the case of `CNC(C)Cc1ccc2c(c1)OCO2` (stereo not drawn) [MDMA], the “Cl (μL/min/mg protein) - Human Microsomes” value (from here on “Cl (μL/min/mg protein)”) is reported as 41 μL/min/mg protein.
In the case of `COC(=O)c1ccc2c(c1)CC(N)C2` (stereo not drawn) [CMP-405, 2-aminoindane-5-methylcarboxylate], the “Cl (μL/min/mg protein)” value is reported as “greater clearance in human microsomes relative to MDMA”.
With `COC(=O)c1cc2c(cc1OC)CC(N)C2` (stereo not drawn) [CMP-401] the “Cl (μL/min/mg protein)” value was “greater clearance in human microsomes relative to MDMA”.
In the case of `COC(=O)COc1ccc2c(c1)CC(N)C2` (stereo not drawn) [CMP-402], the “Cl (μL/min/mg protein)” value is reported as “greater clearance in human microsomes relative to MDMA; also recorded: greatest clearance”.

Same assay, conditions: pH 7.4, read-out: Cl (μL/min/mg protein) - Human Microsomes
For `COC(=O)c1ccc2c(c1)CC(N)C2` (stereo not drawn) [CMP-405, 2-aminoindane-5-methylcarboxylate], the microsomal CLint at 0.5 μM was 137 µL/min/mg.
Work on `COc1ccc2c(c1)CC(N)C2` (stereo not drawn) [MEAI, 5-methoxy-2-aminoindane] yielded a microsomal CLint at 0.5 μM of 137 µL/min/mg.
With `COc1cc2c(cc1C)CC(N)C2` (stereo not drawn) [MMAI, 5-methoxy-6-methyl-2-aminoindane] the microsomal CLint at 0.5 μM was 46.7 µL/min/mg.
`COC(=O)c1cc2c(cc1OC)CC(N)C2` (stereo not drawn) [CMP-401] showed a microsomal CLint at 0.5 μM of 87.2 µL/min/mg.
`COC(=O)COc1ccc2c(c1)CC(N)C2` (stereo not drawn) [CMP-402] showed a microsomal CLint at 0.5 μM of 758 µL/min/mg.
